# Assay results taken from US10676431B2, “Phenylpyrrolidinone formyl peptide 2 receptor agonists” (BRISTOL-MYERS SQUIBB COMPANY, priority 2018, dated 2020).
# How the values were obtained:
# human FPR2 = human FPR2 (Homo sapiens (Human), UniProt P25090); assay: FPR2 cyclic adenosine monophosphate (cAMP) assay; type: cell-based; conditions: CHO cells overexpressing human FPR2; forskolin 5 μM, IBMX 200 μM; inhibition of cAMP production, HTRF; read-out: hFPR2 cAMP2 EC50
# Summary of the method: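 CHO cells overexpressing human FPR2 (2,000/well) or FPR1 (4,000/well) incubated 30 min at room temperature with compound (0.020 nM–100 μM, 1% DMSO), IBMX 200 μM and forskolin (5 μM for FPR2, 10 μM for FPR1). Intracellular cAMP read by HTRF against a cAMP standard curve; inhibition of cAMP production fitted to a 4-parameter logistic.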
# human FPR1 = human FPR1 (Homo sapiens (Human), UniProt P21462); assay: FPR1 cyclic adenosine monophosphate (cAMP) assay; type: cell-based; conditions: CHO cells overexpressing human FPR1; forskolin 10 μM, IBMX 200 μM; inhibition of cAMP production, HTRF; read-out: hFPR1 cAMP EC50
# Summary of the method: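 CHO cells overexpressing human FPR1 (4,000 per well) were incubated 30 min at room temperature with compound (0.020 nM–100 μM, 1% DMSO), 10 μM forskolin and 200 μM IBMX. Intracellular cAMP was read by HTRF. Inhibition of cAMP production was fitted to a 4-parameter logistic equation.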
# human FPR1, sequence (P21462 whole entry): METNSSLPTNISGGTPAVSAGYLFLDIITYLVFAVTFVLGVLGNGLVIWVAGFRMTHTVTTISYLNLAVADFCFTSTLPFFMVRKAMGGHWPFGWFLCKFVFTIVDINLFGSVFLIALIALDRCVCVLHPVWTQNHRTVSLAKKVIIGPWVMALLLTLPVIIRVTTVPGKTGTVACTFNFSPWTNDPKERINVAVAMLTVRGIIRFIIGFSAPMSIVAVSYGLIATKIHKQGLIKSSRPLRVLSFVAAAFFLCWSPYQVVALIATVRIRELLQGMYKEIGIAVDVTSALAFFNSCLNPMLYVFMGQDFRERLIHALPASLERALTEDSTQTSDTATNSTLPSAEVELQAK
# human FPR2, sequence (P25090 whole entry): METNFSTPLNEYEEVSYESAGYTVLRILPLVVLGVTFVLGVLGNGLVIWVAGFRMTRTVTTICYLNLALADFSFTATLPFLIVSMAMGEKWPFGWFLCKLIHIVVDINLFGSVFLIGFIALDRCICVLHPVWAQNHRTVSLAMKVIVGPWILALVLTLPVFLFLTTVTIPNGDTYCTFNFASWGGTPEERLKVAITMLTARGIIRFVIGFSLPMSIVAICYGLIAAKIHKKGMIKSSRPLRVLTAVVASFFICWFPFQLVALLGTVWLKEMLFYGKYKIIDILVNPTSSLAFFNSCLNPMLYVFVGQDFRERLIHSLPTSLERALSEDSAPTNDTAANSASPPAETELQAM
SMILES,EC50 (human FPR2) [nM],EC50 (human FPR1) [nM]
O=C(Nc1ccc(C(F)(F)F)cc1)N[C@@H]1CCN(c2ccc(-c3ccccc3CO)c(F)c2F)C1=O [Example 41],3.6,500
CS(=O)(=O)c1ccccc1-c1ccc(N2CC[C@@H](NC(=O)Nc3ccc(Cl)cc3F)C2=O)c(F)c1F [Example 7],2.1,140
CS(=O)(=O)c1ccccc1-c1ccc(N2CC[C@@H](NC(=O)Nc3ccc(Cl)cn3)C2=O)c(F)c1F [Example 24],22,1400
CP(C)(=O)c1ccccc1-c1ccc(N2CC[C@@H](NC(=O)Nc3ccc(C(F)(F)F)cc3F)C2=O)c(F)c1C(F)(F)F [Example 94],1.8,12
CS(=O)(=O)Nc1ncccc1-c1ccc(N2CC[C@@H](NC(=O)Nc3ccc(Cl)cc3F)C2=O)c(C2CC2)c1 [Example 48],3.7,110
"CP(C)(=O)c1ccccc1-c1ccc(N2CC[C@@H](NC(=O)Nc3ccc(Cl)cc3F)C2=O)c(C(F)(F)F)c1F [Example 91, (R)-1-(4-Chloro-2-fluorophenyl)-3-(1-(2′-(dimethylphosphoryl)-2-fluoro-3-(trifluoromethyl)-[1,1′-biphenyl]-4-yl)-2-oxopyrrolidin-3-yl)urea]",5.7,200
CC1(C)CN(c2ccc(-c3ccccc3P(C)(C)=O)c(F)c2F)C(=O)[C@@H]1NC(=O)Nc1cnc(Cl)cn1 [Example 130],5.7,3000
CP(C)(=O)c1ccccc1-c1ccc(N2CC[C@@H](NC(=O)Nc3ccc(C(F)(F)F)cc3F)C2=O)c(C(F)(F)F)c1F [Example 92],8.3,220
CS(=O)(=O)Nc1ccccc1-c1ccc(N2CC[C@@H](NC(=O)Nc3cnc(Cl)cn3)C2=O)c(F)c1F [Example 15],10,1500
O=C(Nc1ccc(Cl)cc1F)N[C@@H]1CCN(c2ccc(-c3ccccc3N3CCOC3=O)c(F)c2F)C1=O [Example 119],14,190
Cc1c(N2CC[C@@H](NC(=O)Nc3ccc(Cl)cc3F)C2=O)ccc(-c2ccccc2P(C)(C)=O)c1F [Example 96],2.9,75
CP(C)(=O)c1ccccc1-c1ccc(N2CC[C@@H](NC(=O)Nc3cnc(Cl)cn3)C2=O)c(C2CC2)c1 [Example 62],31,720
CS(=O)(=O)c1ccccc1-c1cc(F)c(N2CC[C@@H](NC(=O)Nc3ccc(Cl)cc3F)C2=O)c(F)c1 [Example 52],10,1100
CP(C)(=O)c1ccccc1-c1ccc(N2CC[C@@H](NC(=O)Nc3ccc(C(F)(F)F)cc3F)C2=O)c(Cl)c1F [Example 98],2.9,270
CS(=O)(=O)Nc1ccccc1-c1ccc(N2CC[C@@H](NC(=O)Nc3ncc(Cl)cc3F)C2=O)c(F)c1F [Example 13],6.5,2500
COc1c(-c2ccccc2NS(C)(=O)=O)ccc(N2CC[C@@H](NC(=O)Nc3ccc(Cl)cc3F)C2=O)c1F [Example 34],4.1,26
CP(C)(=O)c1ccccc1-c1ccc(N2CC[C@@H](NC(=O)Nc3ccc(Cl)cc3F)C2=O)c(F)c1C(F)F [Example 95],32,200
COc1c(N2CC[C@@H](NC(=O)Nc3ccc(Cl)cc3F)C2=O)ccc(-c2ccccc2NS(C)(=O)=O)c1F [Example 36],4.7,69
O=C(Nc1ccc(Cl)cc1F)N[C@@H]1CCN(c2ccc(-c3ccccc3CO)c(F)c2F)C1=O [Example 2],4.2,360
CP(C)(=O)c1ccccc1-c1ccc(N2CC(CO)[C@@H](NC(=O)Nc3ccc(Cl)cc3F)C2=O)c(F)c1F (some centres unmarked) [Example 126],12,> 10000

# Now those with a lower EC50 (human FPR2), led by results:
EC50 (human FPR2) [nM],EC50 (human FPR1) [nM],SMILES
1.7,570,CC1(C)CN(c2ccc(-c3ccccc3P(C)(C)=O)c(F)c2F)C(=O)[C@@H]1NC(=O)Nc1ccc(C(F)(F)F)cc1F [Example 102]
1.6,1.2,CP(C)(=O)c1ccccc1-c1ccc(N2CC[C@@H](NC(=O)Nc3ccc(Cl)cc3F)C2=O)c(F)c1OC(F)(F)F [Example 87]
1.4,170,CC(C)c1cc(-c2ccccc2NS(C)(=O)=O)ccc1N1CC[C@@H](NC(=O)Nc2ccc(C(F)(F)F)cc2F)C1=O [Example 37]
1.2,79,CP(C)(=O)c1ccccc1-c1ccc(N2CC[C@@H](NC(=O)Nc3ccc(C(F)(F)F)cc3F)C2=O)c(F)c1Cl [Example 77]
1,220,CS(=O)(=O)c1ccccc1-c1ccc(N2C(=O)[C@H](NC(=O)Nc3ccc(Cl)cc3F)C[C@H]2CO)c(F)c1F [Example 42]
0.99,180,CP(C)(=O)c1ccccc1-c1ccc(N2CC(CO)[C@@H](NC(=O)Nc3ccc(Cl)cc3F)C2=O)c(F)c1F (some centres unmarked) [Example 125]
0.91,250,CS(=O)(=O)Nc1ccccc1-c1ccc(N2CC[C@@H](NC(=O)Nc3ccc(Cl)cc3F)C2=O)c(F)c1 [Example 32]
0.79,240,CP(C)(=O)c1ccccc1-c1ccc(N2CC[C@@H](NC(=O)Nc3ccc(Cl)cc3F)C2=O)c(Cl)c1F [Example 99]
0.68,230,CS(=O)(=O)Nc1ccccc1-c1ccc(N2CC[C@@H](NC(=O)Nc3ccc(Cl)cc3F)C2=O)c(F)c1F [Example 5]
0.61,54,CP(C)(=O)c1c(F)cccc1-c1ccc(N2CC[C@@H](NC(=O)Nc3ccc(C(F)(F)F)cc3F)C2=O)c(F)c1F [Example 72]
0.58,57,CS(=O)(=O)c1ccccc1-c1ccc(N2C(=O)[C@H](NC(=O)Nc3ccc(C(F)(F)F)cc3F)C[C@H]2CO)c(F)c1F [Example 39]
0.57,350,CC1(C)CN(c2ccc(-c3ccccc3P(C)(C)=O)c(F)c2F)C(=O)[C@@H]1NC(=O)Nc1ccc(Cl)cc1F [Example 103]
0.43,200,"CS(=O)(=O)Nc1ccccc1-c1ccc(N2CC[C@@H](NC(=O)Nc3ccc(Cl)cc3)C2=O)c(F)c1F [Example 1, (R)—N-(4′-(3-(3-(4-Chlorophenyl)ureido)-2-oxopyrrolidin-1-yl)-2′,3′-difluoro-[1,1′-biphenyl]-2-yl)methanesulfonamide]"
0.077,20,CP(C)(=O)c1c(F)cccc1-c1ccc(N2CC[C@@H](NC(=O)Nc3ccc(Cl)cc3F)C2=O)c(F)c1F [Example 70]
